Data from US20260232768A1, “TREATMENT OF ATOPIC DERMATITIS WITH POLYETHYLENE GLYCOL-MODIFIED INTERLEUKIN 2, GLUCOCORTICOID AND HYALURONIC ACID” (priority 2023, published 2026).
Marks after values point to notes of the source that are not given here.

Tests used:
[1] = tested on: OVA induced atopic dermatitis (AD) mouse model; experiment: OVA induced atopic dermatitis (AD) mouse model, skin inflammation status scoring; format: in vivo, BALB/c mice; settings: AD model mice, topical patch for 3 consecutive days; total score 0-12; 6 mice per group
Procedure: 10 μg OVA was mixed with 2 mg of aluminum hydroxide in 200 μL of phosphate buffer (PBS) solution, intraperitoneally injected to sensitize mice, once every week (at day 0, 7 and 14), each mouse was injected 3 times, 200 μL each time. On day 14, mice were anesthetized using pentobarbital intraperitoneal injection. […] The OVA patch was prepared by wetting a 1.5×1.5 cm^2 sterile gauze in a solution of 1 mg/mL of OVA (dissolved in PBS) (approximately 100 μL of OVA solution), and was attached using a transparent dressing to the back skin after epilation and replaced daily for 3-7 days to develop dermatitis manifestation, and the status of the back skin of the mice was recorded photographically on day 4~5 after inducing mouse dermatitis (the dermatitis manifestation was most obvious), and the skin inflammation status was scored. […]
Skin inflammation status scores assess dermatitis severity clinically. The total score was 0 to 12, evaluated from four aspects, edema, erythema, scaling and erosion, respectively, an individual score was 0-3 (0, no; 1, mild; 2, moderate; 3, severe), and the final score was the sum of each individual term [SCHWARTZ C, et al. Spontaneous atopic dermatitis in mice with a defective skin barrier is independent of ILC2 and mediated by IL-1β.

[2] = tested on: CD25+FoxP3+ cells in spleen CD3+CD4+ lymphocytes and PD-1+ cells in CD3+CD4+CD25+FoxP3+ cells; experiment: Intraperitoneal injection in physiological model mice, spleen Treg and PD-1 by flow cytometry; format: in vivo, BALB/c mice
Source text: We intraperitoneally injected PEG-IL-2 modified with non-branched PEG of different molecular weight sizes in physiological model mice, and detected FoxP3+ regulatory T cells and the expression of PD-1 in spleen cells on day 4.

For `CCCC1O[C@@H]2C[C@H]3[C@@H]4CCC5=CC(=O)C=C[C@]5(C)[C@H]4[C@@H](O)C[C@]3(C)[C@]2(C(=O)CO)O1` (stereo partly drawn) [Budesonide alone, budesonide], the “Dermatitis score (χ ± s)” value [1] was 2.333 ± 1.211*^.
For “normal IL-2: recombinant human interleukin 2 not modified with PEG, SEQ ID NO: 1, 15 kD”, the “up-regulation of FoxP3+ regulatory T cells in spleen (in words)” value ([2]; detected on day 4) was “did not up-regulate Tregs” and the “expression of PD-1 by regulatory T cells (in words)” value ([2]; spleen, day 4) was “can promote the expression of PD-1”.
